Literature values as cited in US20170368135A1, “HERBAL DRUG COMPOSITION CONTAINING PROBIOTIC AND OPTIONALLY PREBIOTIC AND/OR ACTIVE PHARMACEUTICAL INGREDIENT” (VITALIVA, LLC, priority 2016, published 2017).

What was measured:
alcoholic liver disease = settings: in vivo

COc1cc(/C=C/C(=O)CC(=O)/C=C/c2ccc(O)c(OC)c2)ccc1O [Curcumin]
physiological changes induced by alcohol (alcoholic liver disease): dietary spice turmeric, shows that curcimin administration prevented | endotoxin-mediated activation of NF-κB (NF-κB in Kupffer cells): phsyciological changes induced by alcohol. Curcumin blocks | expression of cytokines, chemokines, COX-2, and iNOS (NF-κB in Kupffer cells; Kupffer cells): endotoxin-mediated activation of NF-κB and suppresses the expression
